# Source: BindingDB's records for PubMed 3252029 (University of Illinois At Chicago, 1988)
# Where “and” joins values, the source holds several entries; their conditions need not be identical. Equal values may be shown once.
# Biological target: T1, Adenosine receptor A1 (Gallus gallus, UniProt P49892)
# T1 sequence (P49892 whole entry): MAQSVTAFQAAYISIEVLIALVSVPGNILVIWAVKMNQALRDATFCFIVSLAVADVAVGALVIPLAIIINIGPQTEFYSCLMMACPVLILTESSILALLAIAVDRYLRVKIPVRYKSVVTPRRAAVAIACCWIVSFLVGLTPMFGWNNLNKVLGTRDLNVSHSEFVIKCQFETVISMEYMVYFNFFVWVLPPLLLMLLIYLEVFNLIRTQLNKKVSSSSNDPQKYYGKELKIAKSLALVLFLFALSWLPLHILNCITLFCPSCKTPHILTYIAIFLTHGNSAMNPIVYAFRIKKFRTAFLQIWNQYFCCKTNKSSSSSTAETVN
row,SMILES,Ki
1,CCNC(=O)[C@H]1O[C@@H](n2cnc3c(N)ncnc32)[C@H](O)[C@@H]1O,14.4 nM and 16.9 nM
2,"CCn1c(=O)c2[nH]c(-c3ccccc3)nc2n(CC)c1=O [1,3-Diethyl-8-phenyl-3,7-dihydro-purine-2,6-dione]",2070 nM and 790 nM
3,OC[C@H]1O[C@@H](n2cnc3c(NC4CCCCC4)ncnc32)[C@H](O)[C@@H]1O [CHA],2.5 nM
